Experimental data from PubChem BioAssay (NCI).
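Results reflect a 48-hour exposure of cells in 96-well plates to compound at five concentrations. Abbreviation: GI50, concentration required for 50% inhibition of growth. TGI: concentration producing complete growth inhibition.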

Legend:
Experiment in all cases: NCI anticancer screen, dose series, 48 h
UACC-257 melanoma = system: UACC-257 melanoma
MCF7 breast = system: MCF7 breast
SR leukemia = system: SR leukemia
SK-OV-3 ovarian = system: SK-OV-3 ovarian
EKVX NSCLC = system: EKVX NSCLC
HS 578T breast = system: HS 578T breast
A549 NSCLC = system: A549 NSCLC
NCI-H226 lung = system: NCI-H226 lung
OVCAR-3 ovarian = system: OVCAR-3 ovarian
SF-295 CNS = system: SF-295 CNS
NCI-H460 lung = system: NCI-H460 lung
TK-10 renal = system: TK-10 renal
MALME-3M melanoma = system: MALME-3M melanoma
HOP-62 NSCLC = system: HOP-62 NSCLC
HT29 colon = system: HT29 colon
MDA-MB-435 = system: MDA-MB-435
OVCAR-5 ovarian = system: OVCAR-5 ovarian
HCT-116 colon = system: HCT-116 colon
SNB-19 CNS = system: SNB-19 CNS
SN12C renal = system: SN12C renal
M14 melanoma = system: M14 melanoma
BT-549 breast = system: BT-549 breast
A498 renal = system: A498 renal
SK-MEL-28 melanoma = system: SK-MEL-28 melanoma
SF-268 CNS = system: SF-268 CNS
HL-60(TB) leukemia = system: HL-60(TB) leukemia
NCI/ADR-RES ovarian = system: NCI/ADR-RES ovarian
HOP-92 NSCLC = system: HOP-92 NSCLC
SK-MEL-5 melanoma = system: SK-MEL-5 melanoma

Cc1ccccc1NC(=O)c1sc2nc(C)c(C(=O)/C=C/c3ccccc3)cc2c1N
GI50 (UACC-257 melanoma): 1.83 µM
TGI (UACC-257 melanoma): 8.71 µM
GI50 (MCF7 breast): 1.5 µM
TGI (MCF7 breast): 8.69 µM
GI50 (SR leukemia): 1.13 µM
TGI (SR leukemia): > 50 µM
GI50 (SK-OV-3 ovarian): 2.5 µM
TGI (SK-OV-3 ovarian): 25.9 µM
GI50 (EKVX NSCLC): 3.86 µM
TGI (EKVX NSCLC): 11.1 µM
GI50 (HS 578T breast): 1.77 µM
TGI (HS 578T breast): > 50 µM
GI50 (A549 NSCLC): 1.58 µM
TGI (A549 NSCLC): 9.7 µM
GI50 (NCI-H226 lung): 1.07 µM
TGI (NCI-H226 lung): 2.35 µM
GI50 (OVCAR-3 ovarian): 1 µM
TGI (OVCAR-3 ovarian): 2.12 µM
GI50 (SF-295 CNS): 2.43 µM
TGI (SF-295 CNS): 16.8 µM
GI50 (NCI-H460 lung): 1.25 µM
TGI (NCI-H460 lung): 3.22 µM
GI50 (TK-10 renal): 1.55 µM
TGI (TK-10 renal): 6.04 µM
GI50 (MALME-3M melanoma): 1.43 µM
TGI (MALME-3M melanoma): 6.11 µM
GI50 (HOP-62 NSCLC): 1.15 µM
TGI (HOP-62 NSCLC): 2.7 µM
GI50 (HT29 colon): 1.18 µM
TGI (HT29 colon): 3.21 µM
GI50 (MDA-MB-435): 0.895 µM
TGI (MDA-MB-435): 2.33 µM
GI50 (OVCAR-5 ovarian): 1.01 µM
TGI (OVCAR-5 ovarian): 2.62 µM
GI50 (HCT-116 colon): 0.896 µM
TGI (HCT-116 colon): 1.96 µM
GI50 (SNB-19 CNS): 1.16 µM
TGI (SNB-19 CNS): 3.58 µM
GI50 (SN12C renal): 1.07 µM
TGI (SN12C renal): 2.5 µM
GI50 (M14 melanoma): 1.58 µM
TGI (M14 melanoma): 6.12 µM
GI50 (BT-549 breast): 1.33 µM
TGI (BT-549 breast): 5.28 µM
GI50 (A498 renal): 1.23 µM
TGI (A498 renal): 4.27 µM
GI50 (SK-MEL-28 melanoma): 1.26 µM
TGI (SK-MEL-28 melanoma): 3.72 µM
GI50 (SF-268 CNS): 1.2 µM
TGI (SF-268 CNS): 3.58 µM
GI50 (HL-60(TB) leukemia): 0.922 µM
TGI (HL-60(TB) leukemia): 2.72 µM
GI50 (NCI/ADR-RES ovarian): 1.5 µM
TGI (NCI/ADR-RES ovarian): > 50 µM
GI50 (HOP-92 NSCLC): 1.48 µM
TGI (HOP-92 NSCLC): 7.26 µM
GI50 (SK-MEL-5 melanoma): 1.11 µM
